Assays:
[1] = system: multi-species bacterial consortium (artificial consortium); test: Dose protocol: growth inhibition (O.D. 650 nm, 4 hours) of artificial bacterial consortium in synthetic white water, I50 and synergy index; format: cell-based; details: for Synergy Index: <1.00 synergistic; for mg/l NH2Cl (alone or in the mixture) to yield 50% inhibition (I50) / mg/l NHCl2 (alone or in the mixture) to yield 50% inhibition (I50): concurrent feed, mg/l as Cl2
Experimental: The efficacies of the active materials and blends were determined using a dose protocol. The actives were evaluated in synthetic white water (see Smith et al., U.S. Pat. […] The materials were tested against multi-species bacterial consortium (also referred to as an artificial consortium) containing approximately equal numbers of six bacterial strains. Although the test strains are representative of organisms present in paper mill systems, the effect is not limited to these bacteria. Two of the strains were Klebsiella pneumonia (ATCC 13883) and Pseudomonas aeruginosa (ATCC 15442). The other four strains were isolated from paper mill systems and have been identified as Curtobacterium flaccumfaciens, Burkholderia cepacia, Bacillus maroccanus, and Pseudomonas […]. Each strain was grown on Tryptic Soy Agar overnight at 37° C. Sterile cotton-tipped swabs were used to aseptically transfer cells to a sterile solution of saline. Each cell suspension was prepared to a desired concentration as measured by turbidity before equal volumes of each strain were then combined to prepare the consortium. The bacterial consortium was distributed into the wells of a microtiter plate before additions of monohaloamine and/or dihaloamine were made. The microtiter plates were incubated at 37° C. Optical density (O.D.) readings at 650 nm were taken initially (t0) and after time 4 hours (t4) of incubation. […] The inhibition values can be plotted versus dosage for each active and the particular blend. […] Synergy Index (SI)=(QA÷Qa)+(QB÷Qb) where: • QA=quantity of compound A in mixture, producing the end point • Qa=quantity of compound A, acting alone, producing the end point • QB=quantity of compound B in mixture, producing the end point • Qb=quantity of compound B, acting alone, producing the end point […] A measured amount of monochloramine and a measured amount of dichloramine were added to a suspension of bacteria and the cell suspension incubated for a selected time period. The effectiveness of the combination of biocides was determined by measuring growth or lack thereof after an additional appropriate incubation time.

[2] = system: artificial bacterial consortia; test: Standard challenge assay: numbers of bacteria surviving after contact time in mineral salt solution; format: cell-based
Experimental: The antibacterial efficacy of monochloramine and dichloramine alone and in combination were compared in a standard challenge assay. To perform the assay, artificial bacterial consortia were prepared using the same species as those in the microtiter assays. A mineral salt solution was prepared by combining K2HPO4 (1.2 mg/l), KH2PO4 (0.624 mg/l), (NH4)2SO4 (0.05 g/l), and NaCl (0.1 mg/l). This solution was sterilized by autoclaving (121° C., 15 min) and, after cooling, it was amended with the following: 10 ml/l of filter sterilized solution of 0.5% (w/v) of CaCl2.6H2O; 10 ml/l of filter sterilized solution of 2% MgSO4.7H2O; filter-sterilized glucose (0.01 g/l, final concentration); 1 ml of a filter-sterilized solution containing Na2EDTA (ethylene diamine tetra acetate) (1.58 g/100 ml), ZnSO4.7H2O (0.7 g/100 ml); MnSO4—H2O (0.18 g/100 ml); FeSO4.7H2O (0.16 g/100 ml); COCl2.6H2O (0.052 g/100 ml); NaMoO4.2H2O (0.042 g/100 ml); and CuSO4.5H2O (0.047 g/100 ml). Equal volumes of cell suspensions of each strain were then combined to prepare the consortium. The bacterial consortium was distributed into sterile glass containers and immediately used in challenge studies. To determine the effect of pH of the mineral salt solution on efficacy of monochloramine, dichloramine, and combinations thereof, the pH of the cell suspension was adjusted to desired levels using dilute solutions of sodium hydroxide or phosphoric acid, as appropriate. The pH values tested in the challenge studies were 5.0, 6.0, 7.0, and 8.0. The pH values represent the pH of whitewater typical of the majority of paper mills.
After the monohaloamine solution was prepared, the quantity needed to achieve a desired final concentration was transferred to the previously prepared bacterial consortium. Samples of the bacterial consortium were collected immediately before addition of the monochloramine and after contact times, usually 1, 10, and 20 minutes. Controls were untreated cell suspensions.
To perform a challenge study, monochloramine was prepared to a desired concentration by mixing appropriate quantities of 30% ammonium hydroxide and 6.2% percent sodium hypochlorite in a volume of deionized water in such a manner as to achieve equimolar ratios of Cl^− and NH2^+. After preparation of the monochloramine solution, the purity of the solution was verified by determining its absorbance spectrum. To prepare a dichloramine solution, the pH of a monochloramine solution was adjusted to down to 5.0. This ensured conversion of monochloramine to dichloramine. […] The concentrations of monochloramine and dichloramine in the solutions were confirmed by measuring total chlorine concentration by Hach DPD chlorine test.
In this example, a measured amount of monochloramine and a measured amount of dichloramine were added to a consortium of bacteria prepared to a density of approximately 1×10^6 cells per milliliter and the cell suspension incubated for a selected time. The consortium of bacteria is described above. The effectiveness of the combination of biocides was determined by measuring the number of bacteria that survived after the contact time. The efficacy of monochloramine, dichloramine, and combinations of the two actives were compared at different pH values. Bacterial consortia were prepared in mineral salts solutions with pH adjusted to selected values and challenged with monochloramine and dichloramine and combinations thereof. Samples for enumerating the number of surviving bacteria were collected at selected time intervals.
Although synergy was detected when monochloramine and dichloramine were combined in a 1:1 ratio, the results of Example 1 illustrated that optimum ratios were larger than 1:1 (monochloramine to dichloramine). In this example, bacterial consortia were prepared with the pH of the mineral salts solution adjusted to selected levels immediately before the cells were added. […]

[3] = pH 5.5, based on 50% inhibition
[4] = pH 8.0, based on 50% inhibition

SMILES | Synergy Index [1, 3] | mg/l NH2Cl (alone or in the mixture) to yield 50% inhibition (I50) ([1]; pH 5.5, synthetic white water) | Synergy Index [1, 4] | mg/l NH2Cl (alone or in the mixture) to yield 50% inhibition (I50) ([1]; pH 8.0, synthetic white water) | Numbers of bacteria surviving after a 20 minute contact time (average of three values) ([2]; pH 5.0, 0.5 mg/l single active) | Numbers of bacteria surviving after a 20 minute contact time (average of three values) ([2]; pH 5.0, 1.0 mg/l single active) | Numbers of bacteria surviving after a 20 minute contact time (average of three values) ([2]; pH 6.0, 0.5 mg/l single active) | Numbers of bacteria surviving after a 20 minute contact time (average of three values) ([2]; pH 6.0, 1.0 mg/l single active) | Numbers of bacteria surviving after a 20 minute contact time (average of three values) ([2]; pH 7.0, 0.5 mg/l single active) | Numbers of bacteria surviving after a 20 minute contact time (average of three values) ([2]; pH 7.0, 1.0 mg/l single active) | Numbers of bacteria surviving after a 20 minute contact time (average of three values) ([2]; pH 8.0, 0.5 mg/l single active) | Numbers of bacteria surviving after a 20 minute contact time (average of three values) ([2]; pH 8.0, 1.0 mg/l single active) | mg/l NHCl2 (alone or in the mixture) to yield 50% inhibition (I50) ([1]; pH 5.5, synthetic white water) | mg/l NHCl2 (alone or in the mixture) to yield 50% inhibition (I50) ([1]; pH 8.0, synthetic white water)
NCl [NH2Cl, monochloramine] | 1.00 | 18.21 mg/L | 1.00 | 7.96 mg/L | 4.97 log10 | 3.94 log10 | 5.14 log10 | 5.14 log10 | 5.47 log10 | 5.17 log10 | 5.74 log10 | 5.71 log10 | – | –
ClNCl [NHCl2, dichloramine] | 1.00 | – | 1.00 | – | 5.58 log10 | 4.47 log10 | 5.17 log10 | 3.62 log10 | 5.52 log10 | 5.40 log10 | 5.62 log10 | 5.26 log10 | 17.23 mg/L | 0.59 mg/L

— patent US7820060B2, “Synergistic biocide and process for controlling growth of microorganisms” (Hercules Incorporated, priority 2005, dated 2010)
